Read-outs that look alike come from different tables or passages of the source.
Assays:
[1] = system: Wistar rat; assay: Effect on Yeast-inflamed Foot; format: in vivo; settings: 2 h, oral, pain threshold two hours later, ED 100%
Method: 8. Effect on Yeast-inflamed Foot
A test compound is orally given Wistar rat (180-200 g, female) immediately before subcutaneous injection of 0.1 ml of 20% yeast suspension into the plantar tissue of the foot. Two hours later, the pain threshold is measured by comprissing the foot with a plunger and calculated by the method of Litchfield and Wilcoxon.

[2] = system: guinea-pig; assay: Anti-erythema Activity (ultraviolet light); format: in vivo
Method: 4. Anti-erythema Activity
The hair on the back of guinea-pig (300-400 g, male and female) is removed on the day before experiment. Thirty minutes after oral administration of a test drug, 3 circular areas (8 mm in diameter each) on the back of the animal are exposed to ultraviolet light for 60 seconds. Anti-erythema activity is evaluated at 2 hours after irradiation. The ED50 is calculated by Up and Down method of Brownlee et al. [J. Am. Stat. Assoc.

[3] = system: Wistar rat; assay: Effect of Scald-inflamed Foot; format: in vivo; settings: 1.5 h, read-out: Scald-inflamed Foot ED (100%)
Method: 7. Effect of Scald-inflamed Foot
A test drug is administered orally 90 minutes after scalding and the analgesic activity is evaluated by compressing the foot with a plunger.

[4] = system: Wistar rats; assay: Anti-abscess Activity (carrageenin); format: in vivo, Wistar rat; settings: Rattus norvegicus, read-out: Anti-abscess ED (25%)
Method: Carrageenin (2% aqueous solution, 0.5 ml) is subcutaneously injected into the back of Wistar rats (180-200 g, female) and at the same time one-half dose of a test compound is orally given, the other half given 3 hours later. The animals are sacrificed 24 hours after carrageenin and the abscess formed is isolated and weighed. The ED25 is calculated by the Bliss' method.

[5] = system: Wistar rats; assay: Anti-edema Activity (carrageenin foot edema); format: in vivo, Wistar rat; settings: Rattus norvegicus, read-out: Anti-edema ED (30%)
Method: An aqueous solution of 1% carrageenin (0.05 ml) is used as phlogistic agent. After 30 minutes Wistar rats (180-200 g, female) are orally administered test compounds, the phalogistic agent is injected subcutaneously into the plantar parts of the foot of rats. The volume of swelling is measured 3 hours after carrageenin, and the anti-edema activity is determined by calculating the ratio of the edematous volume of medicated foot to that of non-medicated foot. […]

[6] = system: Wistar rat; assay: Anti-granuloma Activity (carrageenin filterpaper); format: in vivo; settings: 168 h
Method: 3. Anti-granuloma Activity
Two circular pieces of filterpaper about 6 mm in diameter, soaking 90 mg of 5% carrageenin solution, are implanted subcutaneously in the abdominal skin of Wistar rat (180-200 g, female). A test drug is orally given once a day for 6 consecutive days. On the 7th day the animals are killed and the amount of granulation tissue deposited, the adrenals and the thymus are weighed. The ED25 is calculated by the Bliss' method.

[7] = in vivo; settings: rat, po
[8] = system: Wistar rat; assay: Foot-licking Method (formaldehyde); format: in vivo
Method: Thirty minutes after oral administration of a test drug in Wistar rat (180-200 g, female), the effect of the compound on foot-licking syndrome due to irritation by a subcutaneous injection of 0.05 ml of 3.75% formaldehyde into the plantar tissue of the hind-paw is observed for 50 minutes. The ED50 is calculated by the method of Litchfield and Wilcoxon.

[9] = system: DS mice; assay: Acetic Acid Writhing Method; format: in vivo; settings: Mus musculus, read-out: Acetic Acid Writhing ED (50%)
Method: 6. Acetic Acid Writhing Method
DS mice (20-23 g, male) are treated with an intraperitoneal injection of 0.1 ml/10 g of 0.6% acetic acid 60 minutes after oral administration of a test drug. The number of times of writhing for 10 minutes is counted. The ED50 is calculated by the Bliss' method.

[10] = in vivo; settings: mouse, po
[11] = system: Wistar rat; assay: Effect on Adjuvant Arthritis; format: in vivo; settings: 120 h
Method: 5. Effect on Adjuvant Arthritis
A test compound is orally administered to the arthritic rat twice a day for 5 consecutive days. Five hours after the final medication the change in swelling volume of the arthritic foot is measured. The ED30 is calculated by the Bliss' method.

[12] = system: Wister rat; assay: Anti-pyretic Activity (yeast); format: in vivo; settings: read-out: Anti-pyretic Activity, dose by which body temperature is reduced 0.5° C.
Method: 11. Anti-pyretic Activity
A test compound is orally administered to Wister rat (180-200 g, female) 16 hours after an injection of 2 ml of 15% suspension of yeast into the subcutaneous tissue of the hip of the rat. The rectal temperature is measured every 1 hour for 5 hours. The effective dose is calculated by the Bliss' method.

[13] = Cavia porcellus, light or radiation study, po, 2 h; read-out: Anti-erythema ED (50%)
[14] = oral, 90 minutes after scalding, pain threshold, ED 100%
[15] = oral, two half doses, 24 hours after carrageenin, ED25
[16] = oral, swelling 3 hours after carrageenin, ED 30%
[17] = oral once a day for 6 days, ED25, read-out: Anti-granuloma ED (25%)
[18] = oral, thirty minutes before formaldehyde, ED50, read-out: Footlicking ED (50%)
[19] = oral, 60 minutes before 0.6% acetic acid i.p., ED50
[20] = oral twice a day for 5 days, ED30, read-out: Arthritis ED (30%)
[21] = oral, 16 hours after yeast injection

| Compound | ED100 [1] [mg/kg] | LD50 at 72 h [7] [mg/kg] | LD50 at 72 h [10] [mg/kg] | ED50 [2, 13] [mg/kg] | ED100 [3, 14] [mg/kg] | ED25 [4, 15] [mg/kg] | ED30 [5, 16] [mg/kg] | ED25 [6, 17] [mg/kg] | ED50 [8, 18] [mg/kg] | ED50 [9, 19] [mg/kg] | ED30 [11, 20] [mg/kg] | ED (0.5 degC reduction) [12, 21] [mg/kg] | other results |
| --- | --- | --- | --- | --- | --- | --- | --- | --- | --- | --- | --- | --- | --- |
| CC(=O)Oc1ccccc1C(=O)O [Acetylsalicylic Acid, acetylsalicylic acid] | 250 | 2400 | 2000 | – | – | – | – | – | – | – | – | – | ED50 ([2]; Cavia porcellus, light or radiation study, po, 2 h, read-out: Anti-erythema ED (50%)): 79 mg/kg; ED100 ([3]; po): 260 mg/kg; ED25 ([4]; po, 24 h): 175 mg/kg; ED30 ([5]; po, 3 h): 48 mg/kg; ED25 ([6]; po, read-out: Anti-granuloma ED (25%)): > 500 mg/kg; ED50 ([8]; po, read-out: Footlicking ED (50%)): 580 mg/kg; ED50 ([9]; po): 180 mg/kg; ED30 ([11]; po, read-out: Arthritis ED (30%)): 100 mg/kg; ED (0.5 degC reduction) ([12]; po, 16 h): 14 mg/kg |
| CCCCC1C(=O)N(c2ccccc2)N(c2ccccc2)C1=O [Phenylbutazone, phenylbutazone] | 130 | – | – | 26 | 240 | 33 | 48 | 24 | 150 | 440 | 7.8 | 3.8 | – |
| Cc1nc(Oc2ccccc2)sc1C(C)C(=O)O (centres unmarked) [Example 48-140, calcium 2-(2-phenoxy-4-methyl-5-thiazolyl)propionate] | 110 | 1200 | 1190 | 27 | > 500 | 60 | 14 | 230 | 130 | 180 | 20 | 23 | – |
| CC(C(=O)O)c1ccc(Oc2nccs2)cc1 (centres unmarked) [Example 48-156, 2-[4-(2-thiazolyloxy)phenyl]propionic acid] | 28 | – | – | 20 | 77 | 6.4 | 3.8 | 13 | 175 | 20 | 4.2 | 4 | – |

— patent publication US4025528A, “Thiazole derivatives of benzoic and phenylalkanoic acids” (Shionogi & Co., Ltd., priority 1973, dated 1977)
